In paper PMC12281475, “Mediator Kinase Inhibitor Selectivity and Activity in Colorectal Cancer” (ACS Chemical Biology, 2025):

System: COLO205 cells
Assay: Phospho-proteome profiling (CDK-motif antibody enrichment, LC-MS/MS)
Type: cell-based, human
Details: 6 H
Excerpt: We phospho-proteome profiled COLO205 cells to identify Mediator kinase substrates following chemical inhibition of Mediator kinase activity. Given the confirmed CDK8/19 selectivity of our compounds in binding and enzymatic activity assays, we employed a pool of antibodies selective for the proline-rich motifs phosphorylated by the CDK family to enrich potential CDK8/19 substrates for LC-MS/MS analysis.
Adherent COLO205 cells were lysed with a urea buffer, lysates were reduced with DTT, alkylated with iodoacetimide and digested with trypsin-tosylphenylalanyl chloromethyl ketone. Digested peptides were immunoprecipitated using a pool of motif antibodies from Cell Signaling Technologies (US) comprising: phospho-MAPK substrate (PXS*P or S*PXR/K, #2325, RRID:AB_331820), phospho-CDKs substrate ((K/H)-S*P, #2324; RRID:AB_2244779), phospho-PLK binding motif (ST*P, #5243; RRID:AB_10891778) and phospho-tPE motif (T*PE, #3004; RRID:AB_10890649)-of phospho-MAPK (2325), phospho-CDK (2324), phospho-PLK (5243) and phospho-tPE (C3004) motif-recognizing antibodies immobilized onto protein A/G beads. Immunoprecipitated peptides were analyzed using an LTQ-Orbitrap-Velos. Sequences were assigned to the MS/MS spectra and evaluated using SEQUEST 3G and SORCERER 2 (Sage-N Research v4.0, Milpitas). Quantitative data was evaluated and clustered in Spotfire Decision Site (www.spotfire.tibco.com) and normalized using quartile normalization. Functional annotation and pathway analysis used DAVID (https://david.ncifcrf.gov/). […]
Phospho-proteome analyses
Adherent COLO205 cells were washed with PBS and cells lysed using urea lysis buffer (9 M Urea, 20 mM HEPES, pH 8.0, 1 mM beta-glycerophosphate, 1 mM sodium vanadate, 2.5 mM sodium pyrophosphate) and stored at -80 °C prior to analysis. The supernatants were reduced with 100 mM DTT for 30 minutes at 55 °C, followed by alkylation with 50 mM iodoacetimide for 15 minutes at ambient temperature in the dark.
The samples were diluted in 20 mM HEPES, pH 8.0 and digested overnight with 10 ug/mL trypsin-tosylphenylalanyl chloromethyl ketone in 1 mM HCl. Digested peptides were acidified with 1% formic acid and then desalted over 360-mg SEP PAK C18 columns (Waters, UK). Peptides were eluted with 40% acetonitrile in 0.125% formic acid, dried under a vacuum and the lyophilised peptides used for immunoprecipitation.
A pool of motif antibodies from Cell Signaling Technologies (US) comprising: phospho-MAPK substrate (PXS*P or S*PXR/K, #2325, RRID:AB_331820), phospho-CDKs substrate ((K/H)S*P, #2324; RRID:AB_2244779), phospho-PLK binding motif (ST*P, […]
RRID:AB_10890649), were immobilised onto protein A/G beads overnight at 4 °C. The lyophilised peptides were resuspended in MOPS buffer (50 mM MOPS, pH 7.2, 10 mM KH2PO4, 50 mM NaCl) and centrifuged for 5 mins at 13,500 rpm in an Eppendorf benchtop microcentrifuge. The supernatants were incubated with the motif-bound beads for 2.5 hours at 4 °C . The beads were harvested by centrifugation at 4000 rpm in an Eppendorf benchtop microcentrifuge for 5 mins, washed with MOPS buffer twice and washed again 5 times with deionised water. The peptides were eluted off the beads using 0.125% formic acid, were desalted and dried under a vacuum. The lyophilised immunoprecipitated peptides were resuspended in 0.125% formic acid and separated on a capillary column packed with Magic C18 AQ reversed-phase resin.
Peptides were eluted using a 72-minute linear gradient of acetonitrile in 0.125% formic acid delivered at 280nL/min. Samples were analysed using an LTQ-Orbitrap-Velos.
MS Parameter Settings were: MS Run Time 96 min, MS1 Scan Range (300.0 – 1500.00), Top 20 MS/MS (Min Signal 500, Isolation Width 2.0, Normalized Coll.
Charge State Rejection Enabled, Charge State 1+ Rejected, Dynamic Exclusion Enabled, Repeat Count 1, Repeat Duration 35.0, Exclusion List Size 500, Exclusion Duration 40.0, Exclusion Mass Width Relative to Mass, Exclusion Mass Width 10ppm). […]

[1] = RACGAP1 peptide 572 - vsllgpvTTpehqllkTpSSSSlsqr - 597
[2] = RB1 peptide 788 - spykfpsSplripggniYisplkSpykiseglptptk - 824
[3] = RB1 peptide 792 - fpSSplripggniyiSplkSpYkiseglptpTk - 824
[4] = SEMA6A peptide 745 - adqhhldltalpTpestptlqqk - 767
[5] = SH3RF1 peptide 682 - ivtvlpglpTSpdsassacgnssatkpdkdsk - 713
[6] = SPEN peptide 188 - SrSpnrfdahdpr - 200
[7] = STAT1 peptide 716 - lqttdnllpmsSpeefdevsr - 736
[8] = TACC2 peptide 8/2304 - mkkTpekldntpaSpprSpaepndipiak - 36/2332
[9] = TANC2 peptide 1556 - sqSgspvryqqetsvsqlpgrpksplsSk - 1583
[10] = TASOR peptide 969 - qrSSdYqfpSSpftdtlk - 986
[11] = TASOR peptide 971- ssdyqfpSspftdtlk - 986
[12] = TASOR peptide 971 - ssdyqfpsSpftdtlk - 986
[13] = TBC1D10B peptide 686 - asagpapgpvvtaeglhpslpSptgnsTplgssk - 718
[14] = TBC1D23 peptide 505- visfientsTpvdr - 518
[15] = TFEB peptide 406 - edegppgypeplapghgSpfpslsk - 430
[16] = TGS1 peptide 290 - vdlvsfpsSpimvdndssgtsdkdhseildgisnik - 325
[17] = TLE3 peptide 282 - daptspasvassssTpssk - 300
[18] = TMPO peptide 151 - eqgteSrssTplptisssaentr - 173
[19] = TNRC18 peptide 1230 - vdSpgrTepcTaaldlgvqlTpeTlveak -1258
[20] = TUT1 peptide 273 - apespSldsalaSpldpqa - 293l
[21] = UBR5 peptide 634 - rsTpapkeeekvneeqwslr -653
[22] = WAC peptide 455 - iStpqtntvpikplisTppvsSqpk - 479
[23] = ZC3H13 peptide 1206 - lrSpSndsahr - 1216
[24] = ZMYM4 peptide 1085 - dqgstysgdleseavStphsweeelnhyalk -1115
[25] = ZMYND8 peptide 278/423 - rislsdmprSpmstnssvhtgsdveqdaekk - 307/452
[26] = ZNF687 peptide 123 - mqngfgSpepslpgtphSpappSggtwk - 150

SMILES: Cn1cc(-c2ccc(-c3cncc(Cl)c3N3CCC4(CCNC4=O)CC3)cc2)cn1 [CCT251545]
- CMPD 1/DMSO [1]: 0.557
- MEAN MS SIGNAL CMPD 1 6 H [1]: 38518
- CMPD 1/DMSO [2]: 1.786
- MEAN MS SIGNAL CMPD 1 6 H [2]: 21423
- CMPD 1/DMSO [3]: 1.780
- MEAN MS SIGNAL CMPD 1 6 H [3]: 52675
- CMPD 1/DMSO [4]: 2.360
- MEAN MS SIGNAL CMPD 1 6 H [4]: 62365
- CMPD 1/DMSO [5]: 0.610
- MEAN MS SIGNAL CMPD 1 6 H [5]: 121720
- CMPD 1/DMSO [6]: 2.092
- MEAN MS SIGNAL CMPD 1 6 H [6]: 88908
- CMPD 1/DMSO [7]: 0.357
- MEAN MS SIGNAL CMPD 1 6 H [7]: 223699
- CMPD 1/DMSO [8]: 0.521
- MEAN MS SIGNAL CMPD 1 6 H [8]: 16068
- CMPD 1/DMSO [9]: 3.615
- MEAN MS SIGNAL CMPD 1 6 H [9]: 175022
- CMPD 1/DMSO [10]: 0.437
- MEAN MS SIGNAL CMPD 1 6 H [10]: 47745
- CMPD 1/DMSO [11]: 0.316
- MEAN MS SIGNAL CMPD 1 6 H [11]: 116521
- CMPD 1/DMSO [12]: 0.406
- MEAN MS SIGNAL CMPD 1 6 H [12]: 489288
- CMPD 1/DMSO [13]: 0.515
- MEAN MS SIGNAL CMPD 1 6 H [13]: 63051
- CMPD 1/DMSO [14]: 0.544
- MEAN MS SIGNAL CMPD 1 6 H [14]: 230940
- CMPD 1/DMSO [15]: 0.596
- MEAN MS SIGNAL CMPD 1 6 H [15]: 1352019
- CMPD 1/DMSO [16]: 0.563
- MEAN MS SIGNAL CMPD 1 6 H [16]: 156101
- CMPD 1/DMSO [17]: 2.152
- MEAN MS SIGNAL CMPD 1 6 H [17]: 35775
- CMPD 1/DMSO [18]: 2.220
- MEAN MS SIGNAL CMPD 1 6 H [18]: 19216
- CMPD 1/DMSO [19]: 0.311
- MEAN MS SIGNAL CMPD 1 6 H [19]: 69822
- CMPD 1/DMSO [20]: 2.097
- MEAN MS SIGNAL CMPD 1 6 H [20]: 41046
- CMPD 1/DMSO [21]: 0.456
- MEAN MS SIGNAL CMPD 1 6 H [21]: 139720
- CMPD 1/DMSO [22]: 0.617
- MEAN MS SIGNAL CMPD 1 6 H [22]: 154581
- CMPD 1/DMSO [23]: 1.804
- MEAN MS SIGNAL CMPD 1 6 H [23]: 405976
- CMPD 1/DMSO [24]: 0.475
- MEAN MS SIGNAL CMPD 1 6 H [24]: 46592
- CMPD 1/DMSO [25]: 0.617
- MEAN MS SIGNAL CMPD 1 6 H [25]: 23551
- CMPD 1/DMSO [26]: 0.458
- MEAN MS SIGNAL CMPD 1 6 H [26]: 22069
